Data published in patent US8470370B2, “Controlled release formulations” (Aegis Therapeutics, LLC, priority 2007, dated 2013).

Key:
[1] = Solubility of folic acid in water and 0.1 M sodium bicarbonate; type: physicochemical
Experimental: FIGS. 20 and 21 show several examples of these hydrogels. A-4 is a hydrogel of 2% sucrose stearate/sucrose distearate containing 2.5 mg/ml of folic acid. […] F-4 is a similar hydrogel containing 1 mM curcumin formed from 2% sucrose stearate/sucrose distearate in 0.1M sodium bicarbonate again after heating to 45 degrees C., vortexing to distribute the curcumin and letting the hydrogel form upon cooling to room temperature.

[2] = Curcumin concentration in tetradecylmaltoside hydrogel versus solubility in water; type: physicochemical
From the text: Curcumin was also used in the preparation of hydrogels. Curcumin is a natural product isolated from the root of Curcuma longa from which the spice turmeric is obtained. It has been reported to have potent antioxidative, anti-inflammatory and antiseptic properties, but has extremely low solubility in water and poor bioavailability which limits its pharmaceutical use. By encapsulating curcumin in a hydrogel composed of 2% tetradecylmaltoside a concentration of the compound in the gel can be obtained which is about 33,000 times higher than the solubility of curcumin in water, for example, 1×10^−3 M in the hydrogel vs. 3×10^−8 M in water. The resulting gels are yellow or yellow-orange in color depending on whether sodium bicarbonate is present during the formulation of the gel (see FIG. 13). FIG. 13 is a pictorial representation showing hydrogels of curcumin. Sample E-2 is a hydrogel composed of 2% tetradecylmaltoside and 1 mM curcumin. Sample F-2 is a hydrogel composed of 2% tetradecylmaltoside, 1 mM curcumin, and 0.1 M sodium bicarbonate.

solubility of folic acid ([1]; 0.1 M sodium bicarbonate, 2.5 mg/ml for sample B-5) | solubility of folic acid ([1]; water, 2.5 mg/ml for sample A-5) | concentration of curcumin in the hydrogel ([2]; 2% tetradecylmaltoside hydrogel) | concentration in gel relative to solubility in water ([2]; 2% tetradecylmaltoside hydrogel vs water) | Structure (SMILES)
completely dissolves | poorly soluble |  |  | Nc1nc2ncc(CNc3ccc(C(=O)N[C@@H](CCC(=O)O)C(=O)O)cc3)nc2c(=O)[nH]1 [Folic acid, folic acid]
 |  | 1000 µM | about 33,000 times | COc1cc(/C=C/C(=O)CC(=O)/C=C/c2ccc(O)c(OC)c2)ccc1O [curcumin]
